# Measured values as given in patent US7528175B2, “Method of treating airway diseases with beta-adrenergic inverse agonists” (Inverseon, Inc., priority 2005, dated 2009).
# “Also recorded” adds a separate entry of the source. Like-named read-outs stand apart in the source and are kept apart here.
# Legend:
# asthmatic mice [1] = assay: Airway resistance (Raw) response to methacholine in murine model of asthma (forced oscillation); type: in vivo, Balb/cJ mice
# Procedure: Balb/cJ mice aged 6 weeks (Jackson Animal Laboratory, Bar Harbor, Me.) were housed under specific pathogen-free conditions and fed a chicken ovalbumin-free diet. The Animal Research Ethics Boards of both the University of Houston and the Baylor College of Medicine approved all experiments reported here. […] Mice were sensitized with subcutaneous injection of 25 μg of ovalbumin adsorbed to aluminum hydroxide on protocol days 2, 9, and 16. Subsequently, mice were given 50 μL of saline solution containing 25 μg of ovalbumin intranasally, on a daily basis, from protocol days 23 through 27. A group of ovalbumin-sensitized saline-challenged mice serves as controls for systemic sensitization and respiratory challenges with ovalbumin. Prior to intranasal administrations, mice were sedated with halothane vapor.
# To examine the effects of duration of β-adrenergic ligand therapy on the phenotype of the murine model of asthma, the experimental drugs were administered either acutely or chronically to different groups of asthmatic mice.
# Asthmatic mice on acute therapy were given a single intravenous bolus infusion of either β-adrenergic drug or normal saline on protocol day 28, 15 minutes before airway responsiveness to methacholine was determined. […] […] […] These concentrations were chosen based on those producing therapeutic effects in mice in previously published studies. The non-asthmatic mice were fed normal chow.
# On protocol day 28, mice were anesthetized, tracheotomized, and connected to a computer-controlled small animal ventilator (Flexivent, Scientific Respiratory Equipment, Inc., Montreal, Canada). Airway resistance (Raw) was measured using the forced oscillation technique. The cellular composition of bronchoalveolar lavage fluid (BALF) was also determined.
# To induce airway constriction, a solution containing 150 μg/mL of acetyl-α-methylcholine chloride (methacholine) (Sigma Chemical, St. Louis, Mo.) was infused intravenously at constant rates using a syringe infusion pump (Raze Scientific Instruments, Stanford, Conn.). […] Each methacholine dose was administered for 3 to 5 minutes, during which data were sampled at 1-minute intervals and then averaged.
# The complex input impedance of the respiratory system was computed and the value of the real part of respiratory system impedance at 19.75 Hz was taken to reflect the magnitude of airway resistance (Raw). To examine the degree of airway responsiveness of each animal, the values for Raw as a function of methacholine doses were plotted. The largest value for Raw achieved in response to methacholine stimulation was referred to as Rawpeak. For mice that achieved a plateau in the methacholine dose-Raw response curve, the ED50 was calculated by linear interpolation using the GraphPad Prism4 (GraphPad Software, Inc.). […] The Bonferroni test was used to examine the statistical differences between experimental groups. The effects of acute drug treatments on baseline respiratory system mechanics were assessed using a two-tailed paired t-test. A value of P<0.05 was considered significant.
# For these experiments, salbutamol was used for chronic administration at 0.5 mg/kg/day with a minipump and for acute administration at 0.15 mg/kg by i.v. bolus 15 minutes prior to challenge. Alprenolol was used at a high dose of 7200 ppm in chow or at a low dose of 720 ppm in chow. Carvedilol was used at a high dose of 2400 ppm in chow or at a low dose of 720 ppm in chow.
# β2-adrenergic receptor [2] = target: β2-adrenergic receptor (Mus musculus, UniProt P18762); type: binding, mice
# β2-adrenergic receptor (Mus musculus, UniProt P18762), sequence (P18762 whole entry): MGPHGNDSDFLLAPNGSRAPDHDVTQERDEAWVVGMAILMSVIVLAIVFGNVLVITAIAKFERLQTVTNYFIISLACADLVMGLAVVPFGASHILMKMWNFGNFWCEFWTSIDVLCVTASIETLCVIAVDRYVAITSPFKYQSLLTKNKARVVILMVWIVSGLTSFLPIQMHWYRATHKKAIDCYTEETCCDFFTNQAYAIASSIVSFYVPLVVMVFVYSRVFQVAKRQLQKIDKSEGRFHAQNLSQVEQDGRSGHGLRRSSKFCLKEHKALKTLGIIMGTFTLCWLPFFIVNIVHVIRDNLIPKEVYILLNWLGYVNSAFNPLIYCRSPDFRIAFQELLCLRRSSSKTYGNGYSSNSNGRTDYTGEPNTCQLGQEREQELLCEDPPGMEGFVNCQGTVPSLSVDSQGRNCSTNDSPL
# Procedure: (§1) β2-adrenergic receptor numbers were measured in asthmatic mice as follows. […] Mice were sacrificed and lung membranes were isolated as follows. Frozen lung tissue was homogenized in an ice-cold buffer containing 0.32 M sucrose and 25 mM Tris (pH 7.4) using a polytron (Pro 200, Pro Scientific, Inc.). The homogenate was centrifuged at 1000×g for 10 min at 4° C. The resulting supernatant was centrifuged at 40,000×g for 20 min at 4° C. The pellet was suspended in an ice-cold 25 mM Tris-HCl buffer (pH 7.4) and centrifuged at 40,000×g for 20 min at 4° C. The final pellet was suspended in 200 μL of 25 mM Tris-HCl (pH 7.4); membrane protein concentration was determined by BCA protein assay kit. […] The incubation was done at 37° C. for 2 h and terminated by rapid vacuum filtration through glass fiber filters. The filters were washed three times with 250 μL of cold wash buffer (25 mM Tris-HCl, pH 7.4) and the radioactivity determined in a counter. […] Receptor densities are expressed as femtomoles of sites per milligram of protein. Bmax is determined by nonlinear regression of the saturation binding curves.
# β2-adrenergic receptor [3] = type: binding, mice; settings: 2 days of administration
# Procedure: as §1
# asthmatic mice [4] = assay: Airway hyperresponsiveness, combination of carvedilol and salbutamol vs carvedilol monotherapy; type: in vivo, Balb/cJ mice; settings: 28 days treatment; highest dose of methacholine
# Procedure: Mice (Balb/cJ) aged 6 weeks were housed under specific pathogen-free conditions and fed a chicken ovalbumin-free diet. Mice were systemically sensitized with ovalbumin adsorbed to aluminum hydroxide. Mice were treated as follows: CAR/SAL 28D=for 28 days mice (n=6-12) were administered carvedilol (2400 ppm in animal chow) and salbutamol (subcutaneous delivery of 0.5 mg/kg/day in an Alzet #2400 osmotic minipump); NTX S/C=mice (n=6-12) no drug treatment for 28 days; CTRL=mice (n=6-12) no drug treatment for 28 days, not subsequently challenged; CARHD 28D=for 28 days mice (n=6-12) were administered carvedilol only (2400 ppm in animal chow); CARHD 28D SAL AC=for 28 days mice (n=6-12) were administered carvedilol (2400 ppm in animal chow) and 15 minutes prior to measuring airway hyperresponsiveness, salbutamol was administered at a dose of […].
# To measure airway hyperresponsiveness after 28 days, all mice except the CTRL (control) mice were challenged with ovalbumin and then all mice were anesthetized, tracheotomized, and connected to a Flexivent small animal ventilator to measure airway resistance (Raw) by the forced oscillation technique. To induce airway constriction, a solution containing 150 μg/mL of methacholine was infused using a syringe infusion pump. The methacholine infusion was started at 0.008 mL/min and its rate was doubled stepwise up to a maximum […]. […]
# asthmatic mice [5] = assay: BALF cell number and type (Example 11); type: in vivo; settings: vs nontreated asthmatic mice
# Excerpt: The same mice as described in Example 1 underwent bronchoalveolar lavage (BAL) to determine the total number and type of immune system cells in the lung. BAL Fluid (BALF) was irrigated and collected from the lungs of mice as previously described (Evans K L, Bond R A, Corry […]. Frequency dependence of respiratory system mechanics during induced constriction in a murine model of asthma. J Appl Physiol. 2003 January;94(1):245-52). […] The number of neutrophils was increased in nontreated asthmatic mice compared to mice that served as controls for chronic beta-blocker treatments. In comparison to their notable effects on airway responsiveness, the β-AR ligands tested had very little effect on BALF cellularity. […] FIG. 12 has 3 panels of cell number and type of cells from the bronchoalveolar lavage fluid of asthmatic mice treated acutely or chronically with beta adrenergic ligands. Cells were identified as eosinophils (black bars), macrophages (hatched bars), neutrophils (grey bars), and lymphocytes (white bars) by standard morphologic criteria. At least 200 cells were counted per cytospin preparation, and the absolute number of each cell type was calculated based on the volume of fluid recovered from the lavage. […] Data are expressed as mean ±SEM and are representative of 6-25 animals per group. #P<0.05 compared to NTX, *P<0.05 compared to control (ANOVA).
# [6] = system: tracheas from asthmatic mice; settings: chronic treatment of asthmatic mice, excised tracheas; cited from earlier work
# patients with CHF = settings: cited from earlier work
smiles,measurement,setting,value
COc1ccccc1OCCNCC(O)COc1cccc2[nH]c3ccccc3c12 (stereo not shown) [carvedilol],Decreased Raw,asthmatic mice [1]; 15 minutes of administration,no
same,Decreased Raw,asthmatic mice [1]; 2 days of administration,no
same,Decreased Raw,asthmatic mice [1]; 28 days of administration,yes
same,airway responsiveness to methacholine provocation (Raw),"asthmatic mice [1]; asthmatic mice, acute: single intravenous bolus 15 minutes before methacholine",enhanced the airway responsiveness
same,sensitivity of the responsiveness to methacholine,"asthmatic mice [1]; asthmatic mice, chronic administration",shifts the sensitivity of the responsiveness to methacholine to lower concentrations
same,airway responsiveness to methacholine provocation (Raw),"asthmatic mice [1]; asthmatic mice, chronic administration for 28 days",does reduce airway hyperresponsiveness; also recorded: reduced the responsiveness of asthmatic mice to methacholine provocation
same,protection from airway hyperresponsiveness,"asthmatic mice [1]; chronic administration, low and high doses in chow (FIGS. 8D-8G)",providing protection from airway hyperresponsiveness
same,Bmax,"β2-adrenergic receptor [2]; 15 Minutes drug treatment, lung membranes of asthmatic mice, mean±SEM",86.3 ± 19.42 femtomoles of sites per milligram of protein
same,βmax,"β2-adrenergic receptor [2]; 28 Days drug treatment, lung membranes of asthmatic mice, mean±SEM",904.1 ± 43.46 femtomoles of sites per milligram of protein
same,Increased β2AR density,β2-adrenergic receptor [2]; 15 minutes of administration,no
same,Increased β2AR density,β2-adrenergic receptor [2]; 28 days of administration,showed an increase in receptor density at 28 days
same,Increased β2AR density,"β2-adrenergic receptor [2]; 28 days of administration, listed as Carvedilol",yes
same,increase of the level of β2-adrenergic receptors over the non-treated mice,β2-adrenergic receptor [2]; chronic administration,over 10 fold
same,Increased β2AR density,β2-adrenergic receptor [3],no
same,bronchoconstriction / airway hyperresponsiveness (Raw),asthmatic mice [4],higher bronchoconstriction than these treatments but less than the non-drug treated sensitized and challenged (NTX S/C) mice
same,BALF cellularity,asthmatic mice [5]; acute treatment (15 minutes),had no effects on BALF cellularity
same,BALF cellularity,asthmatic mice [5]; chronic treatment (28 days),had no effects on BALF cellularity
same,effectiveness on tracheal contraction in response to methacholine (rank),[6],followed by carvedilol
same,clinical outcome in congestive heart failure,patients with CHF,significant mortality reduction
